SMILES	melting point [°C]
CC1=C(CCC(=O)O)c2cc3nc(cc4[nH]c(cc5[nH]c(cc1n2)c(C)c5C(C)O)c(C)c4C(C)O)C(C)=C3CCC(=O)O (centres undefined)	172
O=C(O)c1cc(O)c(Br)c(O)c1	270
Cc1cc(C)c(C2(C)CC(C(=NNC(N)=S)c3cc4ccccc4o3)C2)c(C)c1 (centres undefined)	258 to 259
C=Cc1ccco1	-94
O=[N+]([O-])c1ccc(-c2ccc(/N=N/c3ccccc3)cc2)cc1	178 to 179
c1ccc(-c2sc(-c3ccccc3)c3ccccc23)cc1	114 to 119
C1=CC2(CC2)C2C1C1C=CC2C12CC2 (centres undefined)	45
COc1cccc(CC(C)=O)c1	258 to 260
COC1(OC)CC[C@]2(C)[C@H]3CC[C@]4(C)C(=O)CC[C@@]4(O)[C@@H]3CC[C@@]2(C)C1	175 to 176
Nc1ccc(-c2cccnc2)cc1	115 to 118
C1=C[C@@H](OCc2ccccc2)[C@H](OCc2ccccc2)[C@@H](COCc2ccccc2)O1	54 to 57
CC1=CC(C)N=N1 (centres undefined)	108
Clc1ccc2nonc2c1	37 to 40
NC(Cc1ccc(F)cc1F)C(=O)O (racemic)	224 to 226
Cc1c(N=C=O)cnn1-c1ccccc1	56 to 60
O=[N+]([O-])C=Cc1cccc([N+](=O)[O-])c1	126
CNc1c(F)c(F)c(-c2c(F)c(F)c(F)c(F)c2F)c(F)c1F	72
ON=C1CCCc2ccccc21	103 to 105
COc1ccc2c(=O)c3ccccc3oc2c1CN1CCCCC1	160
O=S(=O)(c1ccccc1)N(F)S(=O)(=O)c1ccccc1	110 to 115

SMILES	melting point [°C]
Clc1cccc2c(C#Cc3ccccc3)c3cccc(Cl)c3c(C#Cc3ccccc3)c12	167 to 170
CCCCCC(O)CC(=O)CCc1ccc(OC)c(O)c1 (centres undefined)	31
COc1ncccc1N	67 to 68
CC(C(=O)O)P(=O)(O)O (centres undefined)	120
O=c1n2ccccc2nc2nc3ccccc3n12	338 to 340
Cc1c(/C=C/c2ccc(Cl)cc2Cl)c2ccccc2n1S(=O)(=O)c1ccccc1	110
N=C(N)NC(=N)N	136
Clc1ccc(C=NNc2ncnc3c2cnn3-c2ccccc2)cc1	280 to 282
CC12CCC(=O)C=C1CCC1C2C(O)CC2(C)C1CCC2(O)C(=O)CO (centres undefined)	223
C=CCc1c(O)c(C(=O)c2ccccc2)cc(C(=O)c2ccccc2)c1O	161
CC(C)CNC(=O)C(C(F)(F)F)C(F)(F)F	111
Fc1cccc(Cl)c1C(Cl)(Cl)Cl	38 to 43
CC(=O)OC1CCC2(C)C(=CCC3C4CC(C)C(=O)C4(C)CCC32)C1 (centres undefined)	141
CCOC(=O)NC1C2CCC(C)(C1O)C2(C)C (centres undefined)	76
Cn1c(=O)c2c(ncn2CCCl)n(C)c1=O	122 to 127
Nc1nn2c(-c3ccccc3)cc(=O)[nH]c2c1/N=N/c1ccccc1	265
COc1ccc(Cl)cc1C(=O)NCCc1ccc(S(=O)(=O)NC(=O)NC2CCCCC2)cc1	169
O=S(=O)(c1ccc(Cl)cc1)C(F)(F)C(F)Cl (centres undefined)	55 to 57
Brc1ccc(-c2nc(-c3ccccc3)c(-c3ccccc3)[nH]2)cc1	252 to 260
CC(C)(C)C=O	6

SMILES	melting point [°C]
CC1=C(C(=O)OCc2ccccc2)C(c2ccccc2)NC(=O)N1C (centres undefined)	118
COC(=O)c1ccc(C(=O)OC)c(I)c1	81 to 82
ClCc1cc(-c2cccs2)on1	32 to 34
CN(C)c1ccc(N=Nc2ccccc2)cc1	117
O=C(O)c1ccc2c(c1)C(=O)c1ccccc1-2	341
CCN(CCO)CCO	-50
O=C(NC(Cc1ccsc1)C(=O)O)OCC1c2ccccc2-c2ccccc21 (centres undefined)	188
CCCCCCCC(=O)c1ccc(NC(C)=O)cc1	123
O=c1c2ccccc2c(=O)n2n1C1C=CC2C1	231
C=C(F)C(=O)O	51.5 to 52
O=C(O)c1ccccc1Nc1cccc(C(F)(F)F)c1	134
N#C/C(=C/c1ccc(Cl)cc1)c1nc(-c2ccccc2)cs1	103 to 105
CNC(=O)NC	108
CC(=O)OC1CCC2(C)C(CC(=O)C3C2CC(OC(C)=O)C2(C)C(C(C)CCC(=O)O)CCC32)C1 (centres undefined)	105 to 107
CCC(Oc1c(I)cc(I)cc1I)C(=O)O (centres undefined)	124
CC(=O)OC1CCC2(C)C(C1)CC1(OCCO1)C1C3CCC(=O)C3(C)CCC12 (centres undefined)	240
CN(N=O)c1ccc(N=O)cc1	101
CCOC(=O)c1c[nH]c(=O)nc1C(F)(F)F	165
CCCCCCCCCCCCCCCCCCCCCCCCCCCCCCCCCC	72.6

Source: a melting point compilation (Tetko et al.)
